“And” between values parts separate entries of the source, which are not always exact repeats. Equal entries are not always repeated.

The target of the test is Sodium-dependent phosphate transport protein 2A (Homo sapiens) (UniProt Q06495). Description: PubChem AID 1794813. As to conditions: HEK293 JumpIn SLC34A1, FLIPR membrane potential dye.
Chain of Sodium-dependent phosphate transport protein 2A (Homo sapiens) (Q06495 whole entry, looked up): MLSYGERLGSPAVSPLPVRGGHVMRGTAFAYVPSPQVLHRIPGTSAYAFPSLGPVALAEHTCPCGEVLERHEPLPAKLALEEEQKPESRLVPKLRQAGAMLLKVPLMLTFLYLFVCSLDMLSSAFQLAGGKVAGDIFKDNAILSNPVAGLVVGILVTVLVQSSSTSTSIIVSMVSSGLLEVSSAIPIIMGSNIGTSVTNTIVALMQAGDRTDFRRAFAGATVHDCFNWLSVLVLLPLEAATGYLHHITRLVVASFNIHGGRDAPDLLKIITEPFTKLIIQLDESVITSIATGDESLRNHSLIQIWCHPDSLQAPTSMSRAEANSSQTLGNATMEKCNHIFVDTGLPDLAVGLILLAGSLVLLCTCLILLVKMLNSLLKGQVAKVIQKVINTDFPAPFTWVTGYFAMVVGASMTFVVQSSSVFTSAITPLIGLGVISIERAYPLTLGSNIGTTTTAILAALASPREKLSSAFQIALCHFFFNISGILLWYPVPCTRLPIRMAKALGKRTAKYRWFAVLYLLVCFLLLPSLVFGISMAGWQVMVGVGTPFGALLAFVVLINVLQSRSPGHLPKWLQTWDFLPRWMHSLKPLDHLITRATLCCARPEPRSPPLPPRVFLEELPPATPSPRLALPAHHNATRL

Consider `O=P(O)(O)O`, for which the EC50 (substrate-evoked depolarization, activation) was 32 µM and 39 µM.

Source of the values: PubChem BioAssay AID1794813.
